Source: patent US20120052041A1, “POLYMERIC NANOPARTICLES WITH ENHANCED DRUG-LOADING AND METHODS OF USE THEREOF” (THE BRIGHAM AND WOMEN'S HOSPITAL, INC., priority 2009, published 2012)
Where two headings read alike, the source gives them in different places.

Experiments:
[1] = test system: AKT; assay: Immunoblotting of phosphorylated vs total AKT, MDA-MB-231; assay type: cell-based, human; details: 50 μM, 24 hrs
Method: (§1) Cancer or endothelial cells were washed twice with PBS and directly lysed in 3× loading buffer containing 12% sodium dodecyl sulfate, 15% 2-mercaptoethanol, 1 mM sodium orthovandate and protease inhibitor cocktail tablets from Roche Applied Science (Indianapolis, Ind.). Cells were further homogenized by passing the lysates 3 times through an insulin needle. Samples were then heated for 5 min at 100° C. and equal amounts loaded onto tris-glycine SDS-polyacrylamide gels. Proteins were electrophoretically transferred onto polyvinylidene difluoride membranes, blocked for 1 h with 7% non-fat dry milk, and subsequently incubated overnight at 4° C. with primary antibodies directed against the phosphorylated or total forms of AKT. Proteins were detected with horseradish peroxidase-conjugated anti-rabbit secondary antibodies and Lumi-LightPLUS Western Blotting Substrate (Roche Applied Science). The blots were developed using GeneSnap and optical densities off the protein bands quantified using GeneTools (both from SynGene, Frederick, Md.). Predetermined molecular weight standards were used as markers. Proteins were normalized against actin.
To further evaluate the underlying mechanisms of action of nanoparticles in cancer cells, MDA-MB-231 and B16-F10 were treated with 50 μM of LY294002 or NP-LY and subjected to immunoblotting against the phospho- and total forms of AKT (FIG. 8A). […]

[2] = test system: PI3K; details: literature [17]; cited from earlier work
[3] = test system: HUVEC; assay: MTS assay of FGF-induced HUVEC proliferation; assay type: cell-based, human; details: increasing concentrations, 24 and 48 hours
From the text: Human umbilical vein endothelial cells (HUVEC) were obtained from Cambrex Bio Science (Hopkinton, Mass.) and cultured in EGM-2 medium according to the manufacturer's protocol. A single donor was obtained at passage one, and cells were used between passages 2 and 5. After reaching the first confluence in 100 mm dishes (within 6 to 7 days), the cells were subcultured following trypsin (0.025%) and EDTA (0.01%) application, and plated at various densities depending on the experiment. For all experiments, HUVEC were synchronized overnight using serum reduced medium (0.1% FBS) prior to drug addition, except in the case of the tube assay. […]
Cancer or endothelial cells in 96-well plates were incubated with various doses of free LY or NP-LY for 24, 48 and 72 hrs. The percentage of viable cells were then quantified with 3-(4,5-Dimethylthiazol-2-yl)-5-(3-carboxymethoxyphenyl)-2-(4-sulfophenyl)-2H-tetrazolium (MTS) from the CellTiter 96 AQueous One Solution kit. MTS is reduced by mitochondrial dehydrogenases of live cells, yielding a colored adduct that can be read spectrophotometrically. Briefly, the cells were washed with PBS, incubated with 0.3 mg/ml of MTS, in basal medium without phenol red, for 4 hrs at 37° C. and absorbance was then measured at 490 nm in a plate reader (Versamax, Molecular Devices, Sunnyvale, Calif.). […]

[4] = test system: MDA-MB-231; assay: Annexin V/propidium iodide apoptosis FACS, MDA-MB-231; assay type: cell-based, human
Method: (§2) Cells grown in 6-well plates were treated with drugs for 48 h, and incubated with 5 μL AnnexinV-Alexa Fluor 488 in binding buffer (10 mM HEPES, 140 mM NaCl, 2.5 mM CaCl2, pH 7.4) for 15 min in the dark, according to the manufacturer's protocol. Cells were then washed with binding buffer, counterstained with propidium iodide and immediately processed for FITC and propidium iodide staining using a Becton Dickinson FACSCalibur flow cytometer (excitation 488 and 585 nm, respectively). AnnexinV-Alexa Fluor 488, propidium iodide or both were omitted for the negative controls.
as §2, with “Cancer cells grown” for “Cells grown”, “5 μl” for “5 μL”

[5] = test system: MDA-MB-231; assay: MTS cell viability assay, MDA-MB-231; assay type: cell-based; details: Homo sapiens, 48 hrs, read-out: proportion of viable cells as percentage of vehicle-treated control
Method: (§3) Cancer cells in 96-well plates were incubated with various doses PD or NP for 24, 48 and 72 hrs. The percentage of viable cells was then quantified with 3-(4,5-Dimethylthiazol-2-yl)-5-(3-carboxymethoxyphenyl)-2-(4-sulfophenyl)-2H-tetrazolium (MTS) from the CellTiter 96 AQueous One Solution kit. MTS is reduced by mitochondrial dehydrogenases of live cells, yielding a colored adduct that can be read spectrophotometrically. Briefly, the cells were washed with PBS, incubated with 0.3 mg/ml of MTS, in basal medium without phenol red, for 4 hrs at 37° C. and absorbance was then measured at 490 nm in a plate reader (Versamax, Molecular Devices, Sunnyvale, Calif.). Final absorbance, corresponding to cell proliferation, was plotted after removing background values from each data point.
(§4) Cancer or endothelial cells in 96-well plates were incubated with various doses of free LY or NP-LY for 24, 48 and 72 hrs. The percentage of viable cells were then quantified with 3-(4,5-Dimethylthiazol-2-yl)-5-(3-carboxymethoxyphenyl)-2-(4-sulfophenyl)-2H-tetrazolium (MTS) from the CellTiter 96 AQueous One Solution kit. MTS is reduced by mitochondrial dehydrogenases of live cells, yielding a colored adduct that can be read spectrophotometrically. […] Final absorbance, corresponding to cell proliferation, was plotted after removing background values from each data point.

[6] = test system: B16-F10; assay: Annexin V/propidium iodide apoptosis FACS, B16-F10; assay type: cell-based, mouse
Method: as §2
as §2, with “Cancer cells grown” for “Cells grown”, “5 μl” for “5 μL”

[7] = test system: AKT; assay: Immunoblotting of VEGF-induced AKT phosphorylation, HUVEC; assay type: cell-based, human; details: 50 μM, 24 hours
[8] = test system: HUVEC; assay: HUVEC tube assay on matrigel; assay type: cell-based, human; details: for inhibition at 50 µM: Homo sapiens, HUVEC, 48 hrs
Method: The effect of the drugs using an in vitro angiogenic assay were quantified as follows. HUVEC were seeded in 24-well plates, on glass coverslips that had been coated with matrigel, in medium containing 50 μM of LY or NP-LY for 24 and 48 hrs. At each time points, cells were fixed with 4% paraformaldehyde and immediately visualized under inverted light microscopy at 20× magnification (Nikon Eclipse). Since the matrigel tube assay often yields high variability, we took 10 fields of view per coverslip with 5 coverslips per conditions, and furthermore, used three morphometric methods using the NIS-elements software (Nikon, Melville, N.Y., courtesy of Dr Jeffrey M. Karp) to quantify the results. In the first such method, we measured the length of each tube per field, in the second we measured the associated number of nodes, whereas in the third method, we used a standard graticule to measure the number of vessels falling on each intersection.

[9] = test system: B16-F10; assay: MTS cell viability assay, B16-F10; assay type: cell-based; details: Mus musculus, 48 hrs, read-out: proportion of viable cells as percentage of vehicle-treated control
Method: as §3, §4

[10] = test system: LLC; assay: MTS cell viability assay, LLC; assay type: cell-based; details: Mus musculus, Lewis lung carcinoma, 48 hrs, read-out: proportion of viable cells as percentage of vehicle-treated control
Method: as §3, §4

[11] = test system: ERK1/2; assay: Immunoblotting of phosphorylated vs total ERK1/2, B16-F10; assay type: cell-based, mouse; details: 50 μM
Method: as §1, with “Cells were washed” for “Cancer or endothelial cells were washed”, “forms of ERK1//2 and AKT. Proteins” for “forms of AKT. Proteins”
(§5) The inventors next evaluated the effect of the treatments on the phosphorylation status of ERK in the two cell lines. […]

[12] = test system: panel of 18 other serine/threonine kinases; details: previous studies [15]; cited from earlier work
[13] = test system: MEK; details: previous studies [15]; read-out: IC50 for inhibition of MEK; cited from earlier work
[14] = test system: B16/F10 melanoma; assay: In vivo murine B16/F10 melanoma tumor model; design: species or system mouse
Method: Male C57/BL6 mice (20 g) were injected with 5×10^5 BL6/F10 melanoma cells into the flanks. The drug therapy was started after the tumors attained volume of 25 mm3. The animals were intravenously injected with free PD98059 or PD98059-nanoparticles such that the total dose of PD98059 was 5 mg/kg of PD98059 (administered by tail vein injection). A batch of PD98059 (free or as nanoparticle)-treated animals were subsequently injected with cisplatin (2.5 mg/kg), which was administered intraperitoneally after […] following the PD98059 dosing. The total volume of injection was 100 μl. The tumor volumes and body weights were monitored on a daily basis. The animals were sacrificed at predefined time points. The organs (liver, lung, spleen, kidney and tumor) were harvested immediately following sacrifice and divided into equal parts and stored at −80° C. for further analysis.
To validate the therapeutic efficacy of this treatment, the inventors randomly sorted mice bearing established B16/F10 melanomas into five groups, which received three doses of one of the following treatments (i) vehicle control (ii) free PD98 059 (5 mg/kg) (iii) PD98059-nanoparticle (equivalent to 5 mg/kg of PD98059) (iv) Cisplatin (1.25 mg/kg) and (v) PD98059-nanoparticle (equivalent to 5 mg/kg of PD98059)+Cisplatin (1.25 mg/kg). Cisplatin was administered intraperitoneally one day after the PD98059 administration in order to achieve a sequential biological effect of MAPK-inhibition followed by induction of chemotherapy-induced cytotoxicity. The mice injected with only vehicle formed large tumors by day 14, and consequently, were euthanized. The animals in the other groups were also sacrificed at the same time point to evaluate the effect of the treatments on tumor pathology.

[15] = test system: ERK1/2; assay: Immunoblotting of phosphorylated vs total ERK1/2, MDA-MB-231; assay type: cell-based, human; details: 50 μM
Method: as §1, with “Cells were washed” for “Cancer or endothelial cells were washed”, “forms of ERK1//2 and AKT. Proteins” for “forms of AKT. Proteins”
as §5

O=c1cc(N2CCOCC2)oc2c(-c3ccccc3)cccc12 [LY294002, 2-(4-morpholinyl)-8-phenylchromone]
inhibition of phosphorylation of AKT [1]: only minimal effect | IC50 [2]: […] | effect on FGF-induced cell proliferation [3]: […] | cells in early apoptosis ([4]; 48 hrs): 3.11% | cells in late apoptosis ([4]; 48 hrs): 0.09% | viability at 50 µM [5]: 116% | cells in early apoptosis ([6]; 48 hrs): 61.64% | cells in late apoptosis ([6]; 48 hrs): 0.22% | inhibition of VEGF-induced phosphorylation of AKT [7]: complete inhibition | tube formation ([8]; 50 μM, 24 hrs): significantly inhibited | inhibition at 50 µM ([8]; read-out: inhibition of branch length): 98% | inhibition at 50 µM ([8]; read-out: inhibition of the number of intersections): 87% | inhibition at 50 µM ([8]; read-out: inhibition of the number of nodes): 99% | viability at 50 µM [9]: 8% | viability at 50 µM [10]: 2%

COc1cccc(-c2cc(=O)c3ccccc3o2)c1N [PD98059]
effect on phospho-ERK signal [11]: almost completely abolished | inhibitory effects against a panel of 18 other serine/threonine kinases [12]: no inhibitory effects | IC50 [13]: […] | induction of apoptosis ([4]; 48 hours): failed to induce significant apoptosis | intratumoral ERK phosphorylation (immunostaining) ([14]; data not shown): detected | tumor apoptosis (TUNEL-staining) ([14]; data not shown): minimal effect | tumor growth (tumor volume) ([14]; three doses, PD98059 5 mg/kg i.v., cisplatin 1.25 mg/kg i.p. one day later, to day 14): only partially inhibited | inhibition of ERK signaling (phospho-ERK1/2 vs total) [15]: 5 fold | increase in late apoptosis ([6]; 48 hours): 61 fold | number of cells in the necrotic stage relative to PD98059-nanoparticle-treated cells ([6]; 48 hours): 51 fold

N.N.[Cl][Pt][Cl] [cisplatin]
intratumoral ERK phosphorylation (immunostaining) ([14]; data not shown): detected | necrotic areas in hematoxylin-eosin tumor sections ([14]; data not shown): large necrotic areas | tumor apoptosis (TUNEL-staining) ([14]; data not shown): significant levels of apoptosis
